The values below come from patent US12435074B2, “Physics-driven discovery of novel small therapeutic compounds for use as a BCL-2 inhibitor” (BAHCESEHIR UNIVERSITESI, priority 2020, dated 2025).

In the assay the test system is HCT-116 colon cancer cell line. Description: MTT cell proliferation assay on HCT-116 cells. Type of assay: cell-based. How it is done:
For cell culture experiments various cancer cell lines, HCT-116 colon cancer, U87-MG glial tumor, MCF7 breast cancer cell lines were used. Cells were seeded with high glucose DMEM medium (Biosera) supplemented with 10% FBS (Gibco) and 1X penicillin/streptomycin (Multicell). Twenty-four hours prior to molecule treatment, 10,000 cells were seeded into each well of 24-well cell culture plates. Molecules were used by preparing 4 mM stock solution in DMSO (Amresco). For molecule treatment, molecule stock solutions were diluted in DMEM with 10% FBS and added onto cells in each corresponding well. Final concentration of vehicle DMSO was 2% at maximum. […] We calculated the number of cells to be seeded to make sure that none of the cells reaches more than 60% confluency during the treatment period, as higher plate confluency levels would slow down cell proliferation independently from the molecule treatment.
Values of half-maximal inhibitory concentration were (IC50) determined by MTT cell proliferation assays. […] 570 nm absorbance values were recorded and IC50 values were calculated by dose response—inhibition curves and nonlinear regression analysis on GraphPad Prism 8 software. […] Following the initial incubation day, molecules were added and after incubation with MTT at 37° C. for 4 hours, formazan was solubilized with DMSO (Sigma-Aldrich, St. Louis, USA) and absorbance was measured at 570 nm. […]
A general note: Tetrazolium dyes change colour on reduction, which living cells bring about.

For `CCC(C)(C)C1CCc2c(sc(NC(=O)c3cc(-c4ccc(Cl)s4)nc4ccccc34)c2C(N)=O)C1` (centres unmarked) [compound of formula I], the “proliferation of HCT-116 cells compared to vehicle group” value (FIG. 1, versus vehicle (max 2% DMSO)) is “reduced proliferation and apoptotic cell structures”. For the same molecule, the IC50 (Homo sapiens, 72 h, single treatment, three days results, 570 nm absorbance, read-out: IC50 (half-maximal inhibitory concentration)) came out at 130 µM.
